PubChem BioAssay AID1963424 (Molecular Pharmacology Branch, DTP, NCI, 2024)

Test system: 327498-153-R-J2-PDC complex spheroid growth, % test/control
Experiment: Anticancer human tumor 327498-153-R-J2-PDC patient-derived uterine carcinosarcoma cell line growth inhibition [Asc]
Settings: for IC50: curve of first compound; for viability, T/C: stronger effect = lower value
Method: Multicellular complex tumor spheroid response to apoptosis pathway targeting inhibitors Alrizomadlin, Pelcitoclax, and Dasminapant in combination with a variety of drugs and investigational agents in selected tumor cell lines
The MDM2 inhibitor alrizomadlin, the Bcl-2/Bcl-xL inhibitor pelcitoclax, and the IAPs inhibitor dasminapant were evaluated both individually and in combination with standard of care and investigational anticancer small molecules within a complex spheroid model of solid tumors. . Complex spheroids include a stromal component modeled by human endothelial cells (HUVEC) and fibroblasts modeled by human mesenchymal stem cells (MSCs). The concentration ranges selected for each drug and investigational agent were based upon clinically achievable concentrations if the clinical Cmax of the agent was known.
Compounds. The drugs and investigational agents: alrizomadlin (APG-115; NSC831270), pelcitoclax (APG-1252; NSC835773), dasminapant (APG-1387;NSC834197), TAK-243 (NSC785004), copanlisib (NSC809693), olaparib (NSC753686), talazoparib (NSC767125), cobimetinib (NSC 768068), eltanexor (KPT-8602, NSC 794443), abemaciclib (NSC 768073), sotorasib (NSC818433), adagrasib (NSC 831453), MRTX-1133 (NSC 836407), Iadademestat (ORY1001, NSC 806812), and RMC-4630 (NSC839698), were obtained from the NCI Developmental Therapeutics Program Chemical Repository. The FDA-approved anticancer drug set is available from the Developmental Therapeutics Program at https://dtp.cancer.gov/organization/dscb/obtaining/available plates.htm. […] The stock solutions were prepared in dimethyl sulfoxide (DMSO, Sigma-Aldrich, St. Louis, MO, cat. D2650) at 800-fold the tested concentration and stored at -70 degrees C prior to their use. All drugs and investigational agents were tested over a range starting from a high concentration at or near the clinical Cmax and decreasing in half-log increments. If the clinical Cmax for an agent had not been determined, the highest concentration tested was 10 microM.
The patient-derived cancer (PDC) cell lines include five colon adenocarcinomas: 186277-243-T-J2-PDC, 616215-338-R-J1-PDC, 439559-082-T-J2-PDC, 463943-066-T-J2-PDC, and 519858-162-T-J1-PDC; three pancreatic carcinomas: 323965-272-R-J2-PDC, 521955-158-R6-J3-PDC, and 521955-158-R2-J5-PDC; two uterine sarcomas: 327498-152-R-J2-PDC and 993429-296-R-J1-PDC; two rhabdomyosarcomas: 755483-174-R-J1-PDC and 772245-204-R-J1-PDC; two soft tissue sarcomas: 126254-015-R-J1-PDC and 494315-158-R-J1-PDC; two malignant fibrous histiocytomas: 317291-083-R-J1-PDC and 596521-263-R-J1-PDC; two breast carcinomas: 171881-019-R-J1-PDC and 885512-296-R-J2-PDC; and one ovarian carcinoma: 6556581-035-R-J-PDC were obtained from the NCI PDMR, (https://pdmr.cancer.gov). The established cell lines HSSY-2 synovial sarcoma (RRID:CVCL 8719), SYO-1 synovial sarcoma (RRID:CVCL_7146), MPNST malignant peripheral neural sheath tumor were obtained from the Sloan Kettering Institute. The following established cell lines were purchased from the American Type Culture Collection (ATCC, Manassas, VA), Sor the received from the NCI repository:, PANC-1 pancreatic carcinoma (CRL-1469, RRID:CVCL_0480), OVCAR-5 ovarian carcinoma (RRID:CVCL_1628), OVCAR-8 ovarian carcinoma (RRID:CVCL_1629), , MCF-7 breast carcinoma (CRL-12584, RRID:CVCL_0031), MDA-MB-231 breast carcinoma (CRL-12532, RRID:CVCL_0062), NCI-H1876 small cell lung carcinoma (CRL-5902, RRID:CVCL_1503), NCI-H510A small cell lung carcinoma (HTB-184, RRID:CVCL_1565), NCI-H1417 (CRL-5869, RRID:CVCL_1469), and NCI-H196 small cell lung carcinoma (CRL-5823, RRID:CVCL_1509). Dr. Peter Houghton (Greehey Children's Cancer Research Institute, University of Texas Health Science Center, San Antonio, TX) provided Rh-18 rhabdomyosarcoma (RRID:CVCL_1659). Pooled donor human umbilical vein endothelial cells (HUVEC, Lonza, cat. CC-2519) and human mesenchymal stem cells (hMSC, Lonza, cat. PT-2501) were purchased from Lonza (Walkersville, MD).
Cell Culture. […]

[1] = second compound 0.03 µM, first compound 0.00316 µM
[2] = second compound 0.03 µM, first compound 0.01 µM
[3] = second compound 0.03 µM, first compound 0.0316 µM
[4] = second compound 0.03 µM, first compound 0.1 µM
[5] = second compound 0.0949 µM, first compound 0.00316 µM
[6] = second compound 0.0949 µM, first compound 0.01 µM
[7] = second compound 0.0949 µM, first compound 0.0316 µM
[8] = second compound 0.0949 µM, first compound 0.1 µM
[9] = second compound 0.3 µM, first compound 0.00316 µM
[10] = second compound 0.3 µM, first compound 0.01 µM
[11] = second compound 0.3 µM, first compound 0.0316 µM
[12] = second compound 0.3 µM, first compound 0.1 µM
[13] = second compound 0.949 µM, first compound 0.00316 µM
[14] = second compound 0.949 µM, first compound 0.01 µM
[15] = second compound 0.949 µM, first compound 0.0316 µM
[16] = second compound 0.949 µM, first compound 0.1 µM
[17] = second compound 3 µM, first compound 0.00316 µM
[18] = second compound 3 µM, first compound 0.01 µM
[19] = second compound 3 µM, first compound 0.0316 µM
[20] = second compound 3 µM, first compound 0.1 µM
[21] = second compound 0.03 µM, first compound 0.316 µM
[22] = second compound 0.03 µM, first compound 1 µM
[23] = second compound 0.0949 µM, first compound 0.316 µM
[24] = second compound 0.0949 µM, first compound 1 µM
[25] = second compound 0.3 µM, first compound 0.316 µM
[26] = second compound 0.3 µM, first compound 1 µM
[27] = second compound 0.949 µM, first compound 0.316 µM
[28] = second compound 0.949 µM, first compound 1 µM
[29] = second compound 3 µM, first compound 0.316 µM
[30] = second compound 3 µM, first compound 1 µM
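Also: spheroids exposed to compound for 7 days after 3 days of growth.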
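For viability, T/C in this document: 100% = DMSO vehicle control wells.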

| IC50 (second compound 0.03 µM) [nM] | IC50 (second compound 0.0949 µM) [nM] | IC50 (second compound 0.3 µM) [nM] | IC50 (second compound 0.949 µM) [nM] | IC50 (second compound 3 µM) [nM] | SMILES | viability, T/C [1] [%] | viability, T/C [2] [%] | viability, T/C [3] [%] | viability, T/C [4] [%] | viability, T/C [5] [%] | viability, T/C [6] [%] | viability, T/C [7] [%] | viability, T/C [8] [%] | viability, T/C [9] [%] | viability, T/C [11] [%] | viability, T/C [12] [%] | viability, T/C [15] [%] | viability, T/C [16] [%] | viability, T/C [19] [%] | viability, T/C [20] [%] | further results |
| --- | --- | --- | --- | --- | --- | --- | --- | --- | --- | --- | --- | --- | --- | --- | --- | --- | --- | --- | --- | --- | --- |
| 6.09 | 2.66 | < 0.316 | < 0.316 | < 0.316 | Cn1ncnc1[C@H]1c2n[nH]c(=O)c3cc(F)cc(c23)N[C@@H]1c1ccc(F)cc1 + CCN1C(C(=O)NC23CCC(C(=O)O)(CC2)CC3)C(c2cccc(Cl)c2F)C2(C(=O)Nc3cc(Cl)ccc32)C12CCCCC2 | 70.8 | 34.8 | 12.6 | 6.28 | 45 | 17.4 | 7.19 | 4.65 | 16 | 3.88 | 3.44 | 2.28 | 1.93 | 1.49 | 2.35 | viability, T/C (second compound 0.03 µM, first compound 0.000316 µM): 99.9%; viability, T/C (second compound 0.03 µM, first compound 0.001 µM): 90%; viability, T/C (second compound 0.0949 µM, first compound 0.000316 µM): 75.8%; viability, T/C (second compound 0.0949 µM, first compound 0.001 µM): 73.4%; viability, T/C (second compound 0.3 µM, first compound 0.000316 µM): 45.2%; viability, T/C (second compound 0.3 µM, first compound 0.001 µM): 28.2%; viability, T/C [10]: 6.36%; viability, T/C (second compound 0.949 µM, first compound 0.000316 µM): 5.73%; viability, T/C (second compound 0.949 µM, first compound 0.001 µM): 7.29%; viability, T/C [13]: 3.58%; viability, T/C [14]: 1.98%; viability, T/C (second compound 3 µM, first compound 0.000316 µM): 3.13%; viability, T/C (second compound 3 µM, first compound 0.001 µM): 8.85%; viability, T/C [17]: 2.79%; viability, T/C [18]: 2.59% |
| 1720 | 592 | < 31.6 | < 31.6 | < 31.6 | O=C(c1cc(Cc2n[nH]c(=O)c3ccccc23)ccc1F)N1CCN(C(=O)C2CC2)CC1 + CCN1C(C(=O)NC23CCC(C(=O)O)(CC2)CC3)C(c2cccc(Cl)c2F)C2(C(=O)Nc3cc(Cl)ccc32)C12CCCCC2 | – | – | 94.9 | 83.6 | – | – | 74.5 | 63 | – | 33.6 | 29.5 | 9.62 | 5.99 | 2.94 | 3.36 | viability, T/C [21]: 80.9%; viability, T/C [22]: 63.6%; viability, T/C (second compound 0.03 µM, first compound 3.16 µM): 35%; viability, T/C (second compound 0.03 µM, first compound 10 µM): 9.54%; viability, T/C [23]: 61%; viability, T/C [24]: 42.8%; viability, T/C (second compound 0.0949 µM, first compound 3.16 µM): 14.8%; viability, T/C (second compound 0.0949 µM, first compound 10 µM): 5.01%; viability, T/C [25]: 20.9%; viability, T/C [26]: 17.4%; viability, T/C (second compound 0.3 µM, first compound 3.16 µM): 5.47%; viability, T/C (second compound 0.3 µM, first compound 10 µM): 3.11%; viability, T/C [27]: 4.91%; viability, T/C [28]: 4.88%; viability, T/C (second compound 0.949 µM, first compound 3.16 µM): 3.33%; viability, T/C (second compound 0.949 µM, first compound 10 µM): 2.8%; viability, T/C [29]: 2.53%; viability, T/C [30]: 3.39%; viability, T/C (second compound 3 µM, first compound 3.16 µM): 2.26%; viability, T/C (second compound 3 µM, first compound 10 µM): 2.33% |
| 227 | 47.8 | < 3.16 | < 3.16 | < 3.16 | O=C(c1ccc(F)c(F)c1Nc1ccc(I)cc1F)N1CC(O)([C@@H]2CCCCN2)C1 + CCN1C(C(=O)NC23CCC(C(=O)O)(CC2)CC3)C(c2cccc(Cl)c2F)C2(C(=O)Nc3cc(Cl)ccc32)C12CCCCC2 | 98.2 | 85 | 70.5 | 64.5 | 67 | 61.4 | 55.3 | 41.3 | 37.2 | 17.3 | 15.7 | 4.91 | 4.3 | 2.1 | 1.08 | viability, T/C [21]: 50.3%; viability, T/C [22]: 16%; viability, T/C [23]: 28.4%; viability, T/C [24]: 8.51%; viability, T/C [10]: 29.1%; viability, T/C [25]: 11.1%; viability, T/C [26]: 3.71%; viability, T/C [13]: 8.99%; viability, T/C [14]: 6.26%; viability, T/C [27]: 2.73%; viability, T/C [28]: 1.43%; viability, T/C [17]: 3.41%; viability, T/C [18]: 1.87%; viability, T/C [29]: 1.35%; viability, T/C [30]: 0.86% |
